One molecule from patent US8574633B2 (priority 2004, dated 2013) can be followed below.

The data set deals with ICR mice. As for the experimental part:
2.experimental animals: ICR mice, SPF, male and female, body weight 18-20 g, all bought from Shanghai SIPPR/BK Experimental Animal Co. Laboratory animal license No. SCXK (Hu)2003-0002
3. experimental conditions: SPF experimental environment. Grouped the experimental mice 5 per cage and bred. The breeding temperature was 22±2° C., the humidity was 60-70% and Laboratory animal license number was SCXK (Hu)2002-0035. The mice were bred with the solid high pressure forage. Fasted 12 hours before the test but no water-deprivation.
After administration, the mice were liberated to diet. Observed the mice once immediately, every morning and every afternoon for 7 continuous days. The mice were observed once a day from the 8th day. Record the mortality and toxic reaction of the experimental animals.

Several values for one entry are separate records, joined by “and”; a condition that tells them apart may be missing. Identical values can stand only once.

As for `C/C=C1\[C@H]2C=C(C)C[C@]1(N)c1ccc(=O)[nH]c1C2` [Control medicine, Huperzine A], the “content of HupA at the LD50 of the composition” value (HupA part of the LD50 dose) came out at 6.03 mg/kg. Further, the LD50 (ICR mice, intragastric, simplified probit method, confidence limit 95%) is 6.03 ± 1.46 mg/kg and 6.03 mg/kg.
